“Also recorded” adds a separate entry of the source.
Tests used:
melanoma tumors = settings: cited from earlier work
PD-L1 = assay: Flow cytometry of cell surface PD-L1 in melanoma cells; assay type: cell-based, human or mouse; settings: 250 μM; WM793, SW1, SM1 cells
Text: FIGS. 22A, 22B, 22C, 22D, 22E, and 22F show reduced cell surface class II MHC during anti-PD-1 failure; L-PLA schematic and the effects of L-fucose on tumoral PD-L1 expression and peripheral human CD4^+ T cell fucosylation and IFNγ production/secretion. […] We stained for (i) HLA-DRB1 using anti-HLA-DRB1 followed by (+) oligo-conjugated PLA secondary and (ii) fucosylated glycan using biotinylated (“B”) AAL lectin followed by anti-biotin followed by (−) oligo-conjugated PLA secondary. Ligated PLA oligos were subjected to rolling circle amplification PCR (RCA PCR), giving rise to fluorescent punctae. […] Healthy human donor peripheral CD4^+ T cells were treated with DMSO (D) and 250 μM FUTi (i) or L-fuc (L-f) and subjected to (22E) IB analysis for changes in fucosylation (AAL IB) or (22F) ELISA assay to measure changes in IFNγ production/secretion. *=p-value<0.05.
Indicated cells were treated for 72 h with DMSO, 250 μM fucosyltransferase inhibitor (FUTi) (Millipore Sigma (St. Louis, MO)), or 250 μM of L-fucose (Biosynth (Oak Terrace, IL)). After 72 h, cells were stained with 0.1 μM PKH26 (Millipore Sigma (St. Louis, MO)) prior to fixation in 4% formaldehyde solution. […]

1205Lu melanoma cells = assay: LDH-release NK cell killing of pre-treated 1205Lu melanoma cells; assay type: cell-based; settings: 250 μM pre-treatment, 8 h co-culture, immortalized and primary human NK cells
Procedure: The possibility that tumor fucosylation can directly activate the tumor cell-killing activity of NK cells was explored. To assay for this possibility, a lactate dehydrogenase (LDH)-release-based assay was used in which the fucosylation of LU1205 melanoma cells was modulated prior to co-culture with NK cells. Specifically, primary NK cells isolates (5A) or immortalized NK92 cell line (5B) were co-cultured with 1205Lu melanoma cells that were pre-treated with DMSO, 250 μM pan-fucosyltransferase inhibitor (FUTi), or 250 μM L-fucose for 8 hours. Non-radioactive LDH-release cytotoxicity assay was performed to measure extent of NK cell-mediated killing. […] Immunoblot analysis using AAL lectin (another fucose-binding lectin) was performed to confirm the effects of FUTi (5C) or L-fucose (5D) on 1205Lu cells (96 h treatment). (•: […]) (*: […]).

human CD4+ T cells = assay: CD3/CD28 human CD4+ T cell activation assay / IFNγ ELISA; assay type: cell-based
Procedure: Human CD4^+ T cells were isolated from fresh PBMC using a CD4^+ T cell negative selection isolation kit (Stem Cell Technologies, (Vancouver CA)) according to manufacturer's protocols. CD4^+ T cells were cultured in the presence of DMSO, 250 μM FUTi (Millapore Sigma (St. Louis, MO)), or 250 μM L-fucose 3 days prior to activation. After 3 days, the CD4^+ T cells were activated using anti-CD3/CD28 Dynabeads (ThermoFisher Scientific (Waltham, MA)) in a 1:1 bead: CD4^+ T cell ratio. After 24 h, supernatants were collected and IFNγ ELISA was performed according to manufacturer's protocols (Biolegend (San Diego, CA)).

SW1 tumors = SW1 tumors in immunodeficient NSG mice fed with or without L-fuc; assay type: in vivo, mouse
Procedure: Four-to-six-week-old female C3HeN and male C57BL6 mice were purchased from Charles Rivers Laboratories for the indicated experiments. Four-to-six-week-old male NSG mice from the Lau laboratory breeding colony were used for the indicated experiments. Mice were housed in the Comparative Medicine Facility at H. Lee Moffitt Cancer Center and Research Institute. Mouse tumor volumes were measured using length, width and depth divided by 2. Generally, 10 mice were assigned to each indicated treatment cohort, and 1×10^6 melanoma cells were subcutaneously injected into the right rear flanks of the recipient mice. At each experimental endpoint, mice were humanely euthanized using CO2 inhalation in accordance to the American Veterinary Medical Association guidelines. […] All experiments were approved by the Institutional Animal Care and Use Committee (IACUC) in accordance with the National Research Council guidelines.
SW1 murine mouse melanoma cells were subcutaneously injected into the right rear flanks of NSG mice. After 7 days, when the tumors reached ˜150 mm^3, the mice were either supplemented with or without 100 mM L-fucose (Biosynth (Oak Terrace, IL)) via drinking water, which was provided ad libitum. When the tumors reached 2 cm^3, the animals were sacrificed.

MDSCs = assay: T cell proliferation in co-culture with pre-treated MDSCs; assay type: cell-based; settings: CD3/CD28 activation, CellTrace Violet
Procedure: Shown progressive divisions of CD3/CD28-activated T cells (both CD4+ and CD8+ combined) as affected by co-culture with DMSO (control)-, FUTi (fucosyltransferase inhibitor)-, or L-fucose-pre-treated MDSCs. Undivided T cells are represented by the dark grey column. Divisions were measured by loss of CellTrace™ Violet stain. First division is represented by the light green column; second division is represented by the yellow column; and third division is represented by the navy blue column.

HLA-DRB1 = assay: Flow cytometry of cell surface HLA-DRB1 in melanoma cells; assay type: cell-based, human; settings: 250 μM, 72 h, panel of melanoma cell lines
Procedure: Indicated cells were treated for 72 h with DMSO, 250 μM fucosyltransferase inhibitor (FUTi) (Millipore Sigma (St. Louis, MO)), or 250 μM of L-fucose (Biosynth (Oak Terrace, IL)). After 72 h, cells were stained with 0.1 μM PKH26 (Millipore Sigma (St. Louis, MO)) prior to fixation in 4% formaldehyde solution. The cells were stained with anti-HLA-DRB1 (rabbit anti-human HLA-DRB1 (0.2 μg/mL, ab92371, Abcam (Cambridge, UK)) and fluorescein AAL (0.2 μg/ml. Vector Labs (Burlingame, CA)), or anti-human or anti-mouse PD-L1 (Novus Biologicals (Centennial, CO) or Biolegend (San Diego, CA), respectively) overnight. The following day the cells were washed 3 times prior to adding AlexaFluor 594 donkey anti-rabbit (0.8 μg/mL, ThermoFisher Scientific (Waltham, MA)). Cells were washed 3 times and then subject to flow cytometric analyses using a FACSCalibur™ (BD Biosciences (San Jose, CA)). Samples were analyzed using FlowJo™ analysis software (BD Biosciences (San Jose, CA)). Median values of DRB1 and AAL were normalized to PKH26 values and statistical analysis was performed using GraphPad Prism™.

SMILES: C[C@H](O)[C@@H](O)[C@@H](O)[C@H](O)C=O [L-fucose]
- tumor suppression (melanoma tumors; 100 mM fucose dietary supplementation): increased tumor suppression
- block/reduction of tumor growth (and metastasis) (melanoma tumors; dietary L-fucose supplementation): > 50%
- NK cells and CD4+ T cells in tumor samples (melanoma tumors; fucose supplemented mice): elevated
- cell surface PD-L1 (PD-L1): did not find that modulating fucosylation alters
- NK cell-mediated tumor-cell killing (1205Lu melanoma cells): sufficient to induce the tumor-cell killing activity
- increase of CD4+ T cell activation (IFNγ production) (human CD4+ T cells; 250 μM, 3 days before CD3/CD28 activation): ~37%
- IFN-γ production relative to DMSO treated controls (human CD4+ T cells; FIG. 13): increase
- tumor growth with vs without L-fuc (SW1 tumors): no significant differences
- effect of pre-treated MDSCs on T cell proliferation (MDSCs): do not
- cell surface HLA-DRB1 relative to DMSO (HLA-DRB1): promotes cell surface abundance; also recorded: increased
- cell surface HLA-DRB1 relative to DMSO (HLA-DRB1; listed as L-fuc): increased
